These results are taken from EP1801112A1, “Bicyclic pyrimidines and bicyclic 3,4-dihydropyrimidines as inhibitors of cellular proliferation” (Warner-Lambert Company LLC, priority 1998, dated 1999).

Read-outs that look alike come from different tables or passages of the source. Where only a bound is given, the exact number is not on record here.

What all share (type): biochemical
The target of one test is cdk4/D (Homo sapiens, UniProt P11802). The experiment in a line: Cyclin-Dependent Kinase 4 (cdk4) Assay. Here is the method: A typical assay, for instance, measures inhibitory activity against the cyclin D dependent kinase 4 enzyme (cdk4/D). […] The cdk4 assay was carried out as follows.
Cyclin-Dependent Kinase 4 (cdk4) Assay
Enzyme assays for IC50 determinations (Tables 1 and 2) and kinetic evaluation were performed in 96 well filter plates (Millipore MADVN6550). The total volume was 0.1 mL containing a final concentration of 20 mM TRIS (tris[hydroxymethyl]aminomethane), at pH 7.4, 50 mM NaCl, 1 mM dithiothreitol, 10 mM MgCl2, 25 µM ATP containing 0.25 µCi of [^32P]ATP, 20 ng of cdk4, 1 µg of retinoblastoma, and appropriate dilutions of a compound of the present invention. All components except the ATP were added to the wells, and the plate was placed on a plate mixer for 2 minutes. The reaction was started by adding [^32P]ATP and the plate was incubated at 25°C for 15 minutes. The reaction was terminated by addition of 0.1 mL of 20% trichloroacetic acid (TCA). The plate was kept at 4°C for at least 1 hour to allow the substrate to precipitate. The wells were then washed five times with 0.2 mL of 10% TCA and ^32P incorporation was determined with a beta plate counter (Wallac Inc., Gaithersburg, MD).

Test [1] concerns the target T1, FGF-1 (flg) receptor tyrosine kinase (Homo sapiens, UniProt P11362).
T1 construct: amplify a fragment of DNA that codes for the intracellular tyrosine kinase domain; made in house; host or cells: SF9 insect cells (baculovirus); crude cell lysate used
In words: FGF Receptor Tyrosine Kinase Assay. To be noted: glutamate-tyrosine co-polymer substrate, 50 µM ATP. Here is the method: PDGF and FGF Receptor Tyrosine Kinase Assays
PCR primers were designed to amplify a fragment of DNA that codes for the intracellular tyrosine kinase domain. The fragment was inserted into a baculovirus vector, cotransfected with AcMNPV DNA, and the recombinant virus isolated. SF9 insect cells were infected with the virus to overexpress the protein, and the cell lysate was used for the assay. Assays were performed in 96-well plates (100 µL/incubation/well), and conditions were optimized to measure the incorporation of ^32P from γ^32P-ATP into a glutamate-tyrosine co-polymer substrate. Briefly, to each well was added 82.5 µL of incubation buffer containing 25 mM Hepes (pH 7.0), 150 mM NaCl, 0.1% Triton X-100, 0.2 mM PMSF, 0.2 mM Na3VO4, 10 mM MnCl2, and 750 µg/mL of Poly (4:1) glutamate-tyrosine followed by 2.5 µL of inhibitor and 5 µL of enzyme lysate (7.5 µg/µL FGF-TK or 6.0 µg/µL PDGF-TK) to initiate the reaction. […] The reaction was terminated by the addition of 100 µL of 30% trichloroacetic acid (TCA) containing 20 mM sodium pyrophosphate and precipitation of material onto glass fiber mats (Wallac). […] Nonspecific activity was defined as radioactivity retained on the filters following incubation of samples with buffer alone (no enzyme). Specific enzymatic activity (enzyme plus buffer) was defined as total activity minus nonspecific activity. […]

The target of another test is cdk2/cyclinE (Homo sapiens, UniProt P24941). In words: Cyclin-Dependent Kinase Assay cdk2/cyclinE. Here is the method:
(§1) Cyclin-Dependent Kinase Assays (cdk2/cyclinE, cdk2/cyclinA, cdc2/cyclinB)
(§2) All components except the ATP were added to the wells, and the plate was placed on a plate mixer for 2 minutes. The reaction was begun by addition of [^32P]ATP, and the plate was incubated at 25°C for 15 minutes. The reaction was terminated by addition of 0.1 mL of 20% TCA. The plate was kept at 4°C for at least 1 hour to allow the substrate to precipitate. The wells were then washed five times with 0.2 mL of 10% TCA and ^32P incorporation determined with a beta plate counter (Wallac Inc., Gaithersburg, MD).

The target of another test is cdk2/cyclinA (Homo sapiens, UniProt P24941). In words: Cyclin-Dependent Kinase Assay cdk2/cyclinA. Here is the method: as §1, §2
The next test has as its target cdc2/cyclinB (Homo sapiens, UniProt P06493). In words: Cyclin-Dependent Kinase Assay cdc2/cyclinB. How it is done: as §1, §2
Setting [2] is: 25 µM ATP, retinoblastoma substrate, read-out: IC50 (µM) cdk4/D.
Where [3] appears, read: retinoblastoma substrate, read-out: IC50 (µM) cdk2/E.
[4] abbreviates: retinoblastoma substrate, read-out: IC50 (µM) cdk2/A.
Where [5] appears, read: retinoblastoma substrate, read-out: IC50 (µM) cdkl/B.

cdc2/cyclinB, sequence (P06493 whole entry): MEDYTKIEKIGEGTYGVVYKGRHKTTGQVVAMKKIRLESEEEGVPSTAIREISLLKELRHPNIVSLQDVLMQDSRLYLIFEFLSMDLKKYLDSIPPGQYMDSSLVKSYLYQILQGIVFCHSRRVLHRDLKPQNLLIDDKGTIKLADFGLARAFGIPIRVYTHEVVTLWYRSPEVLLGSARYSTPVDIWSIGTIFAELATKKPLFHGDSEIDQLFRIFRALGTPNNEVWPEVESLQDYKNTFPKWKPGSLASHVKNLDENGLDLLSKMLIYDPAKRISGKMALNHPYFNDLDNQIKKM
cdc2/cyclinB, sequence (P14635 whole entry, further chain): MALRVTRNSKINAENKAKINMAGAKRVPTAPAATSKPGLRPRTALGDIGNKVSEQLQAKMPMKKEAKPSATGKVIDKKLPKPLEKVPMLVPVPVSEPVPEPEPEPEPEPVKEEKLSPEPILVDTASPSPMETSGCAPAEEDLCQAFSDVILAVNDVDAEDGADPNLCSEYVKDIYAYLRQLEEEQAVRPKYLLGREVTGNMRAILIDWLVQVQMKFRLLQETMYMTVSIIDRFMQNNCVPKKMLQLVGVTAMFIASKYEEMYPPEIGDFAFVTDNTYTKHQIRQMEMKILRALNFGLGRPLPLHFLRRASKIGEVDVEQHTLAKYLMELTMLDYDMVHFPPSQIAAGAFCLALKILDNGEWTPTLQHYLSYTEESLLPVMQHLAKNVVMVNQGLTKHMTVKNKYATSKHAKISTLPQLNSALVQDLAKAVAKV
cdk4/D, sequence (P11802 whole entry): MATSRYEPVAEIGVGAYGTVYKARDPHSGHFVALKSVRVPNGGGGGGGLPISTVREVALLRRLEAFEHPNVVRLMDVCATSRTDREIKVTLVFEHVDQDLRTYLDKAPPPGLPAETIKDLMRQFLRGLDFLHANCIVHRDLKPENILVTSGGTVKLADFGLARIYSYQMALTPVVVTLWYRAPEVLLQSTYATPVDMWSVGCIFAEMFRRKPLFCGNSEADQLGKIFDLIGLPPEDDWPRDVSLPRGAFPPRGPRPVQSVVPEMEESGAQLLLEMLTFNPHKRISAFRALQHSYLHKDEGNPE
cdk4/D, sequence (P24385 whole entry, further chain): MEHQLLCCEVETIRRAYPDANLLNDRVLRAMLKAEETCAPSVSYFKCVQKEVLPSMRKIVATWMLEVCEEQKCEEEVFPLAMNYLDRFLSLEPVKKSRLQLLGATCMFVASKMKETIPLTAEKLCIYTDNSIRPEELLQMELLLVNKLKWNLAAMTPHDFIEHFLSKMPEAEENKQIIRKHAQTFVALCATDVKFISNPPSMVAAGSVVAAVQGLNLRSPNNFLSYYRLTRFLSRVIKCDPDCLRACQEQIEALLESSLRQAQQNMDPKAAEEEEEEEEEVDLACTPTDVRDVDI
T1 sequence (P11362 478-767 limits assumed): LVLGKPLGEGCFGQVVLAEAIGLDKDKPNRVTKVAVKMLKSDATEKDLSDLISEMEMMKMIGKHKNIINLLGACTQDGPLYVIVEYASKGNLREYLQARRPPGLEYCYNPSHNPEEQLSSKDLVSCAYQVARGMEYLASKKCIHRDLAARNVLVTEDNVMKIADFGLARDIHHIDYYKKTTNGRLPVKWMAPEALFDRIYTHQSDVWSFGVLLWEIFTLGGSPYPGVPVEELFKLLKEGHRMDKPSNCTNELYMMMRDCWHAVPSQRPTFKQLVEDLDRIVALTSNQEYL

On to `COc1ccc(Nc2ncc3c(n2)N(C2CCCC2)C(=O)NC3)cc1` [Example 9, 1-Cyclopentyl-7-(4-methoxyphenylamino)-3,4-dihydro-pyrimido[4,5-d]pyrimidin-2(1H)-one], for which the IC50 against cdk4/D is 5.75 µM; in test [1], 0.36 µM.
Taken in the same sequence, the figures for `CCN(CC)CCOc1ccc(Nc2ncc3c(n2)N(C2CCCC2)C(=O)NC3)cc1C` [Example 13, 1-Cyclopentyl-7-{3-methyl-4-[2-(diethylamino)ethoxy]phenylamino}-3,4-dihydro-pyrimido[4,5-d]pyrimidin-2(1H)-one] were 0.3 µM and 0.05 to 0.5 µM.
As for `O=C1NCc2cnc(Nc3ccc(N4CCC(CCCO)CC4)cc3)nc2N1C1CCCC1` [Example 20, 1-Cyclopentyl-7-{4-[4-(3-hydroxypropyl)piperidin-1-yl]phenylamino}-3,4-dihydro-pyrimido[4,5-d]pyrimidin-2(1H)-one], the IC50 against cdk4/D was 0.42 µM; on cdk2/cyclinE, 5.35 µM; on cdk2/cyclinA it was 2.72 µM; on cdc2/cyclinB, above 40 µM.
Consider `CC(C)N1C(=O)NCc2cnc(Nc3ccc(N4CCC(O)CC4)cc3)nc21` [Example 23, 7-[4-(4-Hydroxypiperidin-1-yl)phenylamino]-1-isopropyl-3,4-dihydropyrimido[4,5-d]pyrimidin-2(1H)-one], for which the IC50 is 16.8 µM at cdk2/cyclinE, 4.39 µM on cdk2/cyclinA and above 40 µM against cdc2/cyclinB.
With `CC(C)N1C(=O)NCc2cnc(Nc3ccc(N4CCC(N(C)C)CC4)cc3)nc21` [Example 24, 7-{4-[4-(Dimethylamino)piperidin-1-yl]phenylamino}-1-isopropyl-3,4-dihydro-pyrimido[4,5-d]pyrimidin-2(1H)-one; compound with trifluoroacetic acid], the IC50 against cdk2/cyclinE was 34 µM; at cdk2/cyclinA, 12.3 µM; against cdc2/cyclinB, above 40 µM.
Take `CC(C)N1C(=O)NCc2cnc(Nc3ccc(-n4cccn4)cc3)nc21` [Example 25, 1-Isopropyl-7-[4-(pyrazol-1-yl)phenylamino]-3,4-dihydro-pyrimido[4,5-d]pyrimidin-2(1H)-one; compound with trifluoroacetic acid]: the IC50 at cdk2/cyclinE stood at 10 µM; against cdk2/cyclinA, 2.31 µM; against cdc2/cyclinB, 36.5 µM.
Take `CC(C)N1C(=O)NCc2cnc(Nc3ccc(N4CCC(CCCN5CCOCC5)CC4)cc3)nc21` [Example 26, 1-Isopropyl-7-{4-[4-(3-(morpholin-1-yl)propyl)piperidin-1-yl]phenylamino}-3,4-dihydro-pyrimido[4,5-d]pyrimidin-2(1H)-one]: on cdk4/D (read-out: % Inhibition at 40 µM cdk4/D), the inhibition at 40 µM was determined as 47%.
Take `CN1CCN(c2ccc(Nc3ncc4c(n3)N(C)C(=O)NC4)cc2)CC1` [Example 28, 1-Methyl-7-[4-(4-methylpiperazin-1-yl)phenylamino]-3,4-dihydropyrimido[4,5-d]pyrimidin-2(1H)-one; compound with trifluoroacetic acid]: the IC50 on cdk2/cyclinA and at cdc2/cyclinB was above 40 µM in each case.
For the compound `CN1C(=O)NCc2cnc(Nc3ccc(N4CCC(O)CC4)cc3)nc21` [Example 29, 7-[4-(4-Hydroxypiperidin-1-yl)phenylamino]-1-methyl-3,4-dihydropyrimido[4,5-d]pyrimidin-2(1H)-one; compound with trifluoroacetic acid], the IC50 against cdk4/D, against cdk2/cyclinA and on cdc2/cyclinB was above 40 µM throughout.
`CN1C(=O)NCc2cnc(Nc3ccc(N4CCC(N(C)C)CC4)cc3)nc21` [Example 30, 7-{4-[4-(Dimethylamino)piperidin-1-yl]phenylamino}-1-methyl-3,4-dihydropyrimido[4,5-d]pyrimidin-2(1H)-one; compound with trifluoroacetic acid]: the IC50 is 18.2 µM at cdk4/D, above 40 µM on cdk2/cyclinA and above 40 µM on cdc2/cyclinB.
Consider `CN1C(=O)NCc2cnc(Nc3ccc(-n4cccn4)cc3)nc21` [Example 31, 1-Methyl-7-[4-(pyrazol-1-yl)phenylamino]-3,4-dihydro-pyrimido[4,5-d]pyrimidin-2(1H)-one; compound with trifluoroacetic acid], for which the IC50 against cdk2/cyclinA and against cdc2/cyclinB was above 40 µM each time.
With `O=c1ncc2cnc(Nc3ccc(N4CCC(O)CC4)cc3)nc2n1C1CCCC1` [Example 33, 1-Cyclopentyl-7-[4-(4-hydroxypiperidin-1-yl)phenylamino]pyrimido[4,5-d]pyrimidin-2(1H)-one], the IC50 at cdk4/D (setting [2]) is 0.038 µM; at cdk2/cyclinE (setting [3]), 4.2 µM; on cdk2/cyclinA (setting [4]) it was 0.98 µM; on cdc2/cyclinB (setting [5]), 9.76 µM.
On to `CCN(CC)CCOc1ccc(Nc2ncc3cnc(=O)n(C4CCCC4)c3n2)cc1C` [Example 34, 1-Cyclopentyl-7-{3-methyl-4-[2-(diethylamino)ethoxy]-phenylamino}pyrimido[4,5-d]pyrimidin-2(1H)-one], for which the IC50 against cdk4/D was 0.079 µM; on cdk2/cyclinE, 3.15 µM; at cdk2/cyclinA, 3.22 µM; against cdc2/cyclinB it was 7.51 µM.
As for `COc1ccc(Nc2ncc3cnc(=O)n(C4CCCC4)c3n2)cc1` [Example 37, 1-Cyclopentyl-7-(4-methoxyphenylamino)pyrimido[4,5-d]pyrimidin-2(1H)-one], the IC50 amounted to 0.22 µM on cdk4/D, 0.9 µM against cdk2/cyclinE, 0.4 µM against cdk2/cyclinA and 4.76 µM against cdc2/cyclinB.
In the case of `O=c1ncc2cnc(Nc3ccc(N4CCCCC4)cc3)nc2n1C1CCCC1` [Example 38, 1-Cyclopentyl-7-[4-(piperidin-1-yl)phenylamino]pyrimido[4,5-d]pyrimidin-2(1H)-one], the IC50 at cdk4/D (setting [2]) turned out to be 0.15 µM; on cdk2/cyclinE (setting [3]), 2.78 µM; on cdk2/cyclinA (setting [4]) it was 0.77 µM; at cdc2/cyclinB (setting [5]) it was 35.2 µM.
Regarding `CC(C)n1c(=O)ncc2cnc(Nc3ccc(-n4cccn4)cc3)nc21` [Example 42, 1-Isopropyl-7-[4-(pyrazol-1-yl)phenylamino]pyrimido[4,5-d]pyrimidin-2(1H)-one], the IC50 against cdk4/D was 3.9 µM; against cdk2/cyclinE, above 40 µM; at cdk2/cyclinA it was 5.81 µM; at cdc2/cyclinB it was above 40 µM.
With `CN1CCN(c2ccc(Nc3ncc4cnc(=O)n(C)c4n3)cc2)CC1` [Example 45, 1-Methyl-7-[4-(4-methylpiperazin-1-yl)phenylamino]pyrimido[4,5-d]pyrimidin-2(1H)-one], the IC50 is 16.2 µM at cdk4/D, above 40 µM on cdk2/cyclinA and above 40 µM on cdc2/cyclinB.
Consider `CN(C)C1CCN(c2ccc(Nc3ncc4cnc(=O)n(C)c4n3)cc2)CC1` [Example 46, 7-{4-[4-(Dimethylamino)piperidin-1-yl]phenylamino}-1-methyl-pyrimido[4,5-d]pyrimidin-2(1H)-one], for which the IC50 on cdk4/D is above 40 µM; against cdk2/cyclinA, above 40 µM; against cdc2/cyclinB it was above 40 µM; in test [1], 22.6 µM.
On to `Cn1c(=O)ncc2cnc(Nc3ccc(-n4cccn4)cc3)nc21` [Example 47, 1-Methyl-7-[4-(pyrazol-1-yl)phenylamino]pyrimido[4,5-d]pyrimidin-2(1H)-one], for which the IC50 at cdk4/D, against cdk2/cyclinA and against cdc2/cyclinB was above 40 µM in each case.
